Positions of bridges follow the written chain, without caps; N, C: chain ends. Non-standard residues stand in square brackets, D forms with d. Residues, ends and D or L forms follow the SMILES beside them. NMePhe(4-NO2) = CN[C@@H](Cc1ccc([N+](=O)[O-])cc1)C(=O)O; Phe(4-NO2) = N[C@@H](Cc1ccc([N+](=O)[O-])cc1)C(=O)O; 2Nal = N[C@@H](Cc1ccc2ccccc2c1)C(=O)O
Key:
[1] = molecular target: T1, rat somatostatin receptor subtype 2 (SSTR2) (Rattus norvegicus, UniProt P30680); test: Yeast assay, somatostatin agonist activity (zone of growth of modified yeast cells); format: cell-based; design: key: 1 is minimum agonist activity; 5 is maximum agonist activity; --: When no activity is observed, the result is indicated by a dash; conditions: rating on a scale of 1-5 from zone of growth; S. cerevisiae LY364 expressing rat SSTR2
T1 construct: expressed in transfected cells; host or cells: Saccharomyces cerevisiae LY364 bearing pJH2 (SSTR2) and pLP82 (G protein)
Protocol: (§1) In this evaluation, yeast cells which have been specifically modified to functionally express rat somatostatin receptor subtype 2 (SSTR2) on their cell surfaces are used. S. Cerevisiae LY364 cells are plated in a standard synthetic agar medium which lacks histidine. In the absence of a somatostatin receptor agonist, the auxotrophic (his3) cells are unable to grow. In the presence of somatostatin, or a somatostatin agonist, the expression of an enzyme (His3p: imidazole-glycerol phosphate dehydratase) which is essential for histidine biosynthesis is induced. The cells become competent to produce histidine, resulting in a zone of growing cells around the applied test compound. The zone is measured and the test compound is given an agonist rating on a scale of 1-5 wherein 1 is minimum agonist activity and 5 is maximum agonist activity.
1) Inoculate 2 mL SCD-ura-trp liquid medium in Falcon 2051 tube with a single colony taken from a plate containing LY364 (MATa ura3-52 leu2 his3 trp1 lys2 ade2 far1:: LYS2 fus1:: FUS1-HIS3 gpa1::hisG sst2::.ADE2 bearing the SSTR2 expression plasmid, pJH2, and the G protein expression plasmid, pLP82) cells.
3) Add 1 mL of LY364 culture to 1 liter of agar medium.
8) Incubate plates at 30° C.
Day 5. Begin checking plates for growth around applied compounds.
(§2) Day 7. Growth in response to somatostatin should be readily observable. Rate extent of growth or inhibition of growth according to rating scale described hereinabove.

[2] = molecular target: T2, SSTR2 (Rattus norvegicus, UniProt P30680); test: Cyclic AMP accumulation, forskalin stimulated, intact cells; format: cell-based; conditions: read-out: SSTR^2 % IA (% intrinsic activity)
Description: Cyclic AMP accumulation assays are used to determine the functional coupling of somatostatin receptors to effectors. All five cloned somatostatin receptors inhibit cyclic AMP accumulation and adenylyl cyclone activity.^1,2,3,4,5 This evaluation measures cyclic AMP accumulation from intact cells using the adrenal binding protein method. Signal transduction by somatostatin is mediated by lowering intracellular c-AMP levels. This functional assay measures the ability of the test compound to inhibit the effect of somatostatin on forskalin stimulated c-AMP levels.
Bovine adrenal gland extracts are prepared according to the method of Brown et al^6 with minor modifications. […]
Somatostatin-mediated inhibition of cyclic AMP accumulation is measured in intact cells co-incubated with the diterpene forskalin (5 μM) which activates adenylyl cyclase directly and stimulates cyclic AMP accumulation in cells. […] The cells are counted and the concentration of cells is adjusted to 50,000/70 μl and incubated 15 minutes at room temperature before starting the assay. […]

[3] = molecular target: T1, rat somatostatin receptor subtype 2 (SSTR2); test: Yeast assay, somatostatin antagonist activity (zone of no growth in presence of S-14); format: cell-based; design: key: 1 is minimum antagonist activity; 5 is maximum antagonist activity; --: When no activity is observed, the result is indicated by a dash; conditions: rating on a scale of 1-5 from zone of no growth; 5 μL of 1 mg/mL S-14 added to each plate
Protocol: as §1
To evaluate the somatostatin antagonist activity of a test compound, the above procedure is followed except on day 3, 5 μL of 1 mg/mL of somatostatin, S-14, is added to each plate, before applying the test compound. If the test compound is an antagonist of somatostatin, then a zone of no growth will appear within the cell growth zone. This zone of no growth is measured and the test compound is given an antagonist rating on a scale of 1-5 wherein 1 is minimum antagonist activity and 5 is maximum antagonist activity.
The results are shown in Table I. When no activity is observed, the result is indicated by a dash.
On day 3, add 5 μL 1 mg/mL S-14 to each plate.
as §2

[4] = molecular target: T2, SSTR2; test: Competitive binding, displacement of [125I]Tyr11 S-14; design: expressed in transfected cells; membrane protein; conditions: for Ki: calculated by method of Cheng and Prusoff, read-out: SSTR2 Binding Affinity Ki; for IC50: displacement of [125I]Tyr11 S-14, 250 pM, room temperature, 2 hours, read-out: SSTR2 Binding Affinity IC50
Protocol: In this evaluation the concentration of test compound required to displace 50% of somatostatin, SRIF, from the SRIF receptor subtypes expressed in mammalian cells is measured, i.e., the concentration required to inhibit 50% of [^125 I] Tyr^11 S-14 (Amersham) (IC50) from binding to the SRIF receptor subtypes.
Radiolabeled SRIF is mixed with pituitary cells, the test compound is added, the mixture is incubated and the radioactivity is measured as compared to control. Reduced radioactivity indicates successful competitive binding of the test compound to the pituitary cell receptor. The concentration of the test compound in nanomolar units required to displace 50% of SRIF from the pituitary cell receptor is calculated and reported in Table II as the IC50 value. Also calculated is the inhibitory constant, Ki.
Tyr^11 S-14 (150,000 cpm at 2000 Ci/mmole, 250 pM final concentration). The binding reaction is initiated by adding 2-60 μg of membrane protein in a 170 μL volume. Final reaction volume is 200 μl/well. All incubations are carried out at room temperature for 2 hours. Free radioligand is separated from bound ligand by rapid filtration through a glass fiber filter (IH-201-HA) using an Inotech cell harvester. The filter is then washed several times with cold (4° C.) binding buffer lacking BSA and protease inhibitors prior to counting in an LKB gamma master counter (78% efficiency). Whatman GFC filters presoaked in 0.3% polyethylenimine (to decrease background) are used.
The IC50 values and Ki values are calculated using the well-known methods described by Y. Cheng and W. H. Prusoff, Biochem. Pharmacol. 22, 3099-3108 (1973), incorporated herein by reference thereto.

T2 sequence (P30680 whole entry): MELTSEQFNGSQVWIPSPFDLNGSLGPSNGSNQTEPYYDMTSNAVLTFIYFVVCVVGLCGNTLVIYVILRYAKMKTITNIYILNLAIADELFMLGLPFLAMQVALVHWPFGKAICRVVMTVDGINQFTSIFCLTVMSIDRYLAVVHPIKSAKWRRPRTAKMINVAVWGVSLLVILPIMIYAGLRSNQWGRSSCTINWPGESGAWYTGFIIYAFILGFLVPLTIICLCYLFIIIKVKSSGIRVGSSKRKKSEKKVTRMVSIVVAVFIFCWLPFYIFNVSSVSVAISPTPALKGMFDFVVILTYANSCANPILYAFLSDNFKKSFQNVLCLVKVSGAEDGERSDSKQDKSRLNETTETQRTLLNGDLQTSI
T1 sequence (P30680 whole entry): as above

SMILES	Yeast Assay Agonist [1]	Emax [2] [%]	Yeast Assay Antagonist [3]	Ki [4] [nM]	IC50 [4] [nM]
C[C@@H](O)[C@@H]1NC(=O)[C@H](CCCCN)NC(=O)[C@@H](Cc2c[nH]c3ccccc23)NC(=O)[C@H](Cc2ccc(O)cc2)NC(=O)[C@H](NC(=O)[C@@H](N)Cc2ccc(I)cc2)CSSC[C@@H](C(=O)N[C@@H](Cc2ccc(O)cc2)C(N)=O)NC1=O [4-IPhe Tyr Lys Thr Tyr]	--	-12	5		
NCCCC[C@@H]1NC(=O)[C@@H](Cc2c[nH]c3ccccc23)NC(=O)[C@H](Cc2ccc(O)cc2)NC(=O)[C@H](NC(=O)[C@@H](N)Cc2ccc([N+](=O)[O-])cc2)CSSC[C@@H](C(=O)N[C@@H](Cc2ccc3ccccc3c2)C(N)=O)NC(=O)[C@H](CO)NC1=O [4-NO2 Phe Tyr Lys Ser Nal(2)] (H-[Phe(4-NO2)][dC]Y[dW]KSC[2Nal]-NH2; disulfide 2-7 (inferred); N-terminus and C-terminus assumed)	--	7	3		
CC(C)[C@@H]1NC(=O)[C@H](CCCCN)NC(=O)[C@@H](Cc2c[nH]c3ccccc23)NC(=O)[C@H](Cc2ccc(O)cc2)NC(=O)[C@H](NC(=O)[C@@H](N)Cc2ccc3ccccc3c2)CSSC[C@@H](C(=O)N[C@@H](Cc2ccc(O)cc2)C(N)=O)NC1=O [L-Nal(2) Tyr Lys Val Tyr] (H-[2Nal][dC]Y[dW]KVCY-NH2; disulfide 2-7)	--		3	2.22	5
CN[C@@H](Cc1ccc([N+](=O)[O-])cc1)C(=O)N[C@@H]1CSSC[C@@H](C(=O)N[C@@H](Cc2ccc(O)cc2)C(N)=O)NC(=O)[C@H](C(C)C)NC(=O)[C@H](CCCCN)NC(=O)[C@@H](Cc2c[nH]c3ccccc23)NC(=O)[C@H](Cc2ccc(O)cc2)NC1=O [NMe-4-NO2 Phe Tyr Lys Val Tyr] (H-[NMePhe(4-NO2)][dC]Y[dW]KVCY-NH2; disulfide 2-7 (inferred); N-terminus and C-terminus assumed)	--		5	2.67	6

Reference: patent publication US5846934A, “Pure somatostatin antagonist and methods of use thereof” (American Cyanamid Company, priority 1997, dated 1998)
